# US6506339B1, “Method of sterilization” (Biomedical Design, Inc., priority 1997, dated 2003)
# “And” between values parts separate entries of the source, which are not always exact repeats. Equal values may be shown once.
# Experiments:
# Format in all cases: cell-based
# [1] = tested on: Bacillus subtilis ATCC 9372 spores; test: Sterilization test with or without coupling enhancer (Example 3); conditions: 20 mM EDC, 20% isopropyl alcohol, 72 hours, about 40° C.
# Experimental: In the experiments described above, a coupling enhancer (Sulfo-NHS) was added to EDC during the sterilization process. The following experiment was designed to test the efficacy of EDC in the presence or absence of an enhancer. A sterilization test process was carried out employing about 5.7 to 6.6×10^5 Bacillus subtilis ATCC 9372 spores, inoculating them in sterile cups for 10 minutes. A solution of 10 mM HEPES, 0.85% NaCl, 20% isopropyl alcohol, pH 6.5 was then added to each of the cups, which solution contained 20 mM EDC and either 1 mM Sulfo-NHS or 1 mM NHS or no enhancer. Incubation was carried out for 72 hours (treatment duration) with the cups at about 40° C., and the solutions from the cups were then filtered. The filters were rinsed with a 0.1% peptone water solution to eliminate any residual EDC and/or enhancer and were then incubated on Trypticase Soy Agar (TSA) plates.
# [2] = tested on: Bacillus subtilis (niger) spores; test: Sterilization without isopropyl alcohol with porcine aortic root tissue (Example 4C); conditions: 40° C., 1.5×10^6 spores with root tissue, no isopropyl alcohol
# Experimental: An experiment similar to that of Example 4A is carried out using slightly higher concentrations of EDC and including porcine aortic root tissue. Bacillus subtilis (niger) spores at levels of 1.5×10^6 are inoculated for approximately 10 minutes in sterile cups each containing root tissue. Solutions (50 ml) of 50, 75 and 100 mM EDC in 10 mM TRIS, 0.85% NaCl, pH 6.5 are prewarmed to 40° C. and then rapidly added to the tissues in the cups. The cups containing the tissue are incubated at 40° C. for 6, 9, 12, 24 and 48 hours; then, the solutions are diluted and filtered in order to collect microorganisms. The valve tissue is washed for 20 minutes in a reciprocating shaker in the presence of peptone water containing Tween 80 in order to extract all spores of microorganisms from the tissue. The solutions from the shakers are filtered through the respective filters to which the original solutions were applied. The filters are rinsed with a 0.1% peptone water solution and incubated on TSA plates for up to 14 days. The plates are examined daily for growth.
# [3] = tested on: Bacillus subtilis (niger) spores; test: D values of EDC without isopropyl alcohol, 40° C. (Example 4A); conditions: no isopropyl alcohol; for incubation duration necessary to achieve 6 log reduction: calculated from D value
# Experimental: The following experiment was carried out to assess the effectiveness of a coupling agent, such as EDC, in the absence of isopropyl alcohol or an equivalent alkanol. Bacillus subtilis (niger) spores at levels of 1.5×10^6 were inoculated in sterile cups for approximately 10 minutes. Solutions (50 ml) of 25, 37.5 and 50 mM EDC in 10 mM TRIS, 0.85% NaCl, pH 6.5, which contain no isopropyl alcohol, were prewarmed to 40° C. and then rapidly added to the cups. The cups were incubated at 40° C. for 0.5, 1, 6, 24 and 48 hours; then, the solutions were diluted and filtered in order to collect microorganisms. Next, the filters were rinsed with a 0.1% peptone water solution to eliminate any residual EDC and then incubated on TSA plates for up to 14 days. The plates were examined every day for growth, with the colony forming units (CFUs) being counted, and resulting D values were calculated. Such D values represent the duration (in minutes) of incubation to decrease the level of spores by one log, i.e. eliminating 90% of the spores population.
# [4] = tested on: spores of Bacillus subtilis; test: Effect of EDC concentration, temperature and duration on spores on cross-linked tissue (Example 4); conditions: 20% IPA
# Experimental: The following experiment was designed to test the effect of EDC concentration, of temperature and of duration of incubation on the inactivation of spores of Bacillus subtilis. The EDC concentrations tested were 5, 12.5 and 20 mM; the temperatures were 25, 32.5 and 40° C. for 4, 24 and 44 hours of incubation. […] Spores of Bacillus subtilis (about 2.5×10^5 per sample) were inoculated on tissue that had been cross-linked using the fixation method described in the '536 patent. The spores were allowed to contact the tissue for 10 minutes, after which time 50 ml of a solution of EDC at one of the concentrations indicated above was added to each cup containing the tissue plus the spores, and incubation was carried out at the respective temperatures and for the respective lengths of time. After such incubation for either 4, 24 or 44 hours, the solutions were filtered to recover the spores, and these were incubated on TSA plates for 2 weeks at 32 to 33° C. The tissue samples were washed with a solution containing a surfactant to fully extract the spores from the tissue, and the resulting solutions were filtered. After washing with 0.1% peptone water, the filters were incubated on TSA plates for 2 weeks at 32 to 33° C. in order to determine the number of survivors on or in the tissue. The colonies were enumerated for both the EDC solutions and the tissue wash solutions, and the results (numbers of colony forming units) were added.
# [5] = 5 mM EDC, 25° C., 4 hrs, about 2.5×10^5 spores on tissue
# [6] = 5 mM EDC, 25° C., 44 hrs, about 2.5×10^5 spores on tissue
# [7] = 5 mM EDC, 32.5° C., 24 hrs, about 2.5×10^5 spores on tissue
# [8] = 5 mM EDC, 40° C., 4 hrs, about 2.5×10^5 spores on tissue
# [9] = 12.5 mM EDC, 25° C., 24 hrs, about 2.5×10^5 spores on tissue
# [10] = 12.5 mM EDC, 32.5° C., 4 hrs, about 2.5×10^5 spores on tissue
# [11] = 12.5 mM EDC, 32.5° C., 24 hrs, about 2.5×10^5 spores on tissue (conditions 8-11, replicates), hydrochloride
# [12] = 12.5 mM EDC, 32.5° C., 44 hrs, about 2.5×10^5 spores on tissue
# [13] = 12.5 mM EDC, 40° C., 24 hrs, about 2.5×10^5 spores on tissue
# [14] = 20 mM EDC, 25° C., 4 hrs, about 2.5×10^5 spores on tissue
# [15] = 20 mM EDC, 25° C., 44 hrs, about 2.5×10^5 spores on tissue
# [16] = 20 mM EDC, 32.5° C., 24 hrs, about 2.5×10^5 spores on tissue
structure (smiles),measurement,setting,value
"CCN=C=NCCCN(C)C.Cl [EDC, 1-ethyl-3(3-dimethylaminopropyl)carbodiimide hydrochloride]",NUMBER OF COLONY FORMING UNITS (SURVIVORS),[1]; enhancer 1 mM NHS,0
same,NUMBER OF COLONY FORMING UNITS (SURVIVORS),[1]; enhancer 1 mM sulfo-NHS,0
same,NUMBER OF COLONY FORMING UNITS (SURVIVORS),[1]; no enhancer,0
same,inactivation of spores,"[2]; 50 mM EDC, 6 hours",only partial kill
same,inactivation of spores,"[2]; 50 mM EDC, 9 hours",complete inactivation of the spores
same,inactivation of spores,"[2]; 75 mM EDC, 6 hours",effectively inactivates these spores
same,inactivation of spores,"[2]; 75 mM EDC, 9 hours",complete inactivation of the spores
same,inactivation of spores,"[2]; 100 mM EDC, 6 hours",effectively inactivates these spores
same,inactivation of spores,"[2]; 100 mM EDC, 9 hours",complete inactivation of the spores
same,D value (duration of incubation to decrease the level of spores by one log),[3]; 25 mM EDC,203 minutes
same,incubation duration necessary to achieve 6 log reduction,[3]; 25 mM EDC,24 hours
same,D value (duration of incubation to decrease the level of spores by one log),[3]; 37.5 mM EDC,106 minutes
same,incubation duration necessary to achieve 6 log reduction,[3]; 37.5 mM EDC,11 hours
same,D value (duration of incubation to decrease the level of spores by one log),[3]; 50 mM EDC,86 minutes
same,incubation duration necessary to achieve 6 log reduction,[3]; 50 mM EDC,9 hours
same,LOG REDUCTION,[4]; [5],.27
same,SURVIVORS,[4]; [5],135000 CFUs
same,LOG REDUCTION,[4]; [6],2.3
same,SURVIVORS,[4]; [6],1300 CFUs
same,LOG REDUCTION,[4]; [7],3.0
same,SURVIVORS,[4]; [7],208 CFUs
same,LOG REDUCTION,[4]; [8],2.4
same,SURVIVORS,[4]; [8],1100 CFUs
same,SURVIVORS,"[4]; 5 mM EDC, 40° C., 44 hrs, about 2.5×10^5 spores on tissue",21 CFUs
same,LOG REDUCTION,[4]; [9],3.0
same,SURVIVORS,[4]; [9],225 CFUs
same,LOG REDUCTION,[4]; [10],1.6
same,SURVIVORS,[4]; [10],5900 CFUs
same,LOG REDUCTION,[4]; [11],3.6 and 3.9 and 3.4 and 3.7
same,SURVIVORS,[4]; [11],57 CFUs and 34 CFUs and 94 CFUs and 44 CFUs
same,LOG REDUCTION,[4]; [12],3.9
same,SURVIVORS,[4]; [12],33 CFUs
same,LOG REDUCTION,[4]; [13],4.0
same,SURVIVORS,[4]; [13],27 CFUs
same,LOG REDUCTION,[4]; [14],0.9
same,SURVIVORS,[4]; [14],31400 CFUs
same,LOG REDUCTION,[4]; [15],4.2
same,SURVIVORS,[4]; [15],16 CFUs
same,LOG REDUCTION,[4]; [16],4.0
same,SURVIVORS,[4]; [16],24 CFUs
same,SURVIVORS,"[4]; 20 mM EDC, 40° C., 4 hrs, about 2.5×10^5 spores on tissue",5 CFUs
same,LOG REDUCTION,"[4]; 20 mM EDC, 40° C., 44 hrs, about 2.5×10^5 spores on tissue",5.4
